Oligonucleotides are written 5' to 3', each unit as a sugar letter and its base; * is a phosphorothioate linkage, no mark a phosphodiester; rarer units and linkages stand in square brackets, end groups in braces. Plain capitals give the bases only. d = 2'-deoxy (DNA); r = 2'-OH (RNA)

Results on 49 substances are retold here after the OligoGym collection.
Also: test concentration or dose not given here.

The series has as its target UBE2S. The series is described as follows: reporter assay of Huesken 2005. As to conditions: siRNA.
“sense rCrUrGrGrCrGrArGrCrGrCrGrArUrArArGrArAdTdT / antisense rUrUrCrUrUrArUrCrGrCrGrCrUrCrGrCrCrArGdCdA”: the normalised inhibition (eCFP-eYFP dual reporter) is 82.4%.

“sense rCrCrCrUrGrArGrGrGrGrArCrCrCrCrArUrArUdTdT / antisense rArUrArUrGrGrGrGrUrCrCrCrCrUrCrArGrGrGdCdC” returned a normalised inhibition (eCFP-eYFP dual reporter) of 46.5%.

Turning to “sense rUrGrCrGrUrCrArArCrGrUrGrCrUrCrArArGrAdTdT / antisense rUrCrUrUrGrArGrCrArCrGrUrUrGrArCrGrCrAdGdA”, the normalised inhibition (eCFP-eYFP dual reporter) amounted to 74.5%.

Consider “sense rArGrGrArCrUrUrCrCrCrUrGrCrCrUrCrCrCrCdTdT / antisense rGrGrGrGrArGrGrCrArGrGrGrArArGrUrCrCrUdTdC”, for which the normalised inhibition (eCFP-eYFP dual reporter) stood at 55.2%.

For the substance “sense rGrGrGrCrCrCrUrGrGrCrCrArGrUrGrGrCrArCdTdT / antisense rGrUrGrCrCrArCrUrGrGrCrCrArGrGrGrCrCrCdGdA”, the normalised inhibition (eCFP-eYFP dual reporter) is 43%.

As for “sense rGrArGrUrCrUrGrCrArCrUrCrArArCrGrArGrGdTdT / antisense rCrCrUrCrGrUrUrGrArGrUrGrCrArGrArCrUrCdGdG”, the normalised inhibition (eCFP-eYFP dual reporter) is 71.5%.

For the substance “sense rGrArGrGrGrGrCrUrGrArGrGrGrUrCrCrCrArUdTdT / antisense rArUrGrGrGrArCrCrCrUrCrArGrCrCrCrCrUrCdCdC”, the normalised inhibition (eCFP-eYFP dual reporter) was 45%.

In the case of “sense rGrArCrArCrGrUrArCrUrGrCrUrGrArCrCrArUdTdT / antisense rArUrGrGrUrCrArGrCrArGrUrArCrGrUrGrUrCdGdG”, the normalised inhibition (eCFP-eYFP dual reporter) worked out at 85.5%.

For “sense rGrGrGrGrCrUrGrArGrGrGrUrCrCrCrArUrGrGdTdT / antisense rCrCrArUrGrGrGrArCrCrCrUrCrArGrCrCrCrCdTdC”, the normalised inhibition (eCFP-eYFP dual reporter) is 42.8%.

As to “sense rArArGrGrUrCrUrUrUrCrCrCrArArCrGrArGrGdTdT / antisense rCrCrUrCrGrUrUrGrGrGrArArArGrArCrCrUrUdGdA”, the normalised inhibition (eCFP-eYFP dual reporter) came to 53%.

For the substance “sense rCrCrArCrCrCrGrArUrGrGrCrArUrCrArArGrGdTdT / antisense rCrCrUrUrGrArUrGrCrCrArUrCrGrGrGrUrGrGdGdT”, the normalised inhibition (eCFP-eYFP dual reporter) came out at 47.2%.

“sense rGrGrGrCrCrGrArArGrCrCrGrGrUrCrGrGrGrCdTdT / antisense rGrCrCrCrGrArCrCrGrGrCrUrUrCrGrGrCrCrCdTdG” returned a normalised inhibition (eCFP-eYFP dual reporter) of 36.4%.

Consider “sense rUrGrGrCrGrArGrArUrCrUrGrCrGrUrCrArArCdTdT / antisense rGrUrUrGrArCrGrCrArGrArUrCrUrCrGrCrCrAdTdT”, for which the normalised inhibition (eCFP-eYFP dual reporter) worked out at 85.6%.

Substance “sense rGrGrUrGrArCrGrArCrArCrUrGrArCrCrGrCrAdTdT / antisense rUrGrCrGrGrUrCrArGrUrGrUrCrGrUrCrArCrCdTdC” registered a normalised inhibition (eCFP-eYFP dual reporter) of 88.7%.

“sense rArArCrUrArCrGrArGrGrArGrUrArUrGrCrArGdTdT / antisense rCrUrGrCrArUrArCrUrCrCrUrCrGrUrArGrUrUdCdT” displayed a normalised inhibition (eCFP-eYFP dual reporter) of 40%.

“sense rUrArArCrCrCrCrGrArGrUrCrUrGrCrArCrUrCdTdT / antisense rGrArGrUrGrCrArGrArCrUrCrGrGrGrGrUrUrAdGdG” showed a normalised inhibition (eCFP-eYFP dual reporter) of 39.5%.

“sense rGrArCrCrCrArCrCrCrGrArUrGrGrCrArUrCrAdTdT / antisense rUrGrArUrGrCrCrArUrCrGrGrGrUrGrGrGrUrCdTdG”: the normalised inhibition (eCFP-eYFP dual reporter) worked out at 61.7%.

Consider “sense rGrGrArGrArArCrUrArCrGrArGrGrArGrUrArUdTdT / antisense rArUrArCrUrCrCrUrCrGrUrArGrUrUrCrUrCrCdAdA”, for which the normalised inhibition (eCFP-eYFP dual reporter) is 56.3%.

The substance “sense rGrArGrGrArGrUrArUrGrCrArGrCrUrCrGrGrGdTdT / antisense rCrCrCrGrArGrCrUrGrCrArUrArCrUrCrCrUrCdGdT” yielded a normalised inhibition (eCFP-eYFP dual reporter) of 56.7%.

Regarding “sense rUrCrCrArCrCrCrUrArArCrCrCrCrGrArGrUrCdTdT / antisense rGrArCrUrCrGrGrGrGrUrUrArGrGrGrUrGrGrAdTdC”, the normalised inhibition (eCFP-eYFP dual reporter) came out at 39.4%.

“sense rGrCrCrCrArGrCrGrGrCrArGrGrGrCrCrGrArAdTdT / antisense rUrUrCrGrGrCrCrCrUrGrCrCrGrCrUrGrGrGrCdCdC” yielded a normalised inhibition (eCFP-eYFP dual reporter) of 42%.

Consider “sense rUrGrGrArGrGrUrCrUrGrUrUrCrCrGrCrArUrGdTdT / antisense rCrArUrGrCrGrGrArArCrArGrArCrCrUrCrCrAdGdC”, for which the normalised inhibition (eCFP-eYFP dual reporter) is 58.5%.

Consider “sense rArArGrArUrCrUrUrCrCrArCrCrCrGrArArCrGdTdT / antisense rCrGrUrUrCrGrGrGrUrGrGrArArGrArUrCrUrUdGdG”, for which the normalised inhibition (eCFP-eYFP dual reporter) was 60.4%.

On to “sense rGrCrCrUrCrCrCrCrArCrCrCrArArGrGrGrCrUdTdT / antisense rArGrCrCrCrUrUrGrGrGrUrGrGrGrGrArGrGrCdAdG”, for which the normalised inhibition (eCFP-eYFP dual reporter) came to 46.3%.

On to “sense rArGrUrArUrGrCrArGrCrUrCrGrGrGrCrCrCrGdTdT / antisense rCrGrGrGrCrCrCrGrArGrCrUrGrCrArUrArCrUdCdC”, for which the normalised inhibition (eCFP-eYFP dual reporter) turned out to be 49.8%.

“sense rGrUrGrGrGrCrGrCrCrArArUrGrGrCrGrArGrAdTdT / antisense rUrCrUrCrGrCrCrArUrUrGrGrCrGrCrCrCrArCdGdT” yielded a normalised inhibition (eCFP-eYFP dual reporter) of 54.4%.

Substance “sense rUrGrCrUrCrUrUrGrGrArGrArArCrUrArCrGrAdTdT / antisense rUrCrGrUrArGrUrUrCrUrCrCrArArGrArGrCrAdGdG” registered a normalised inhibition (eCFP-eYFP dual reporter) of 77.8%.

Substance “sense rArCrGrGrCrUrGrArGrCrUrGrGrGrCrArUrCrCdTdT / antisense rGrGrArUrGrCrCrCrArGrCrUrCrArGrCrCrGrUdCdC” displayed a normalised inhibition (eCFP-eYFP dual reporter) of 52.3%.

For “sense rGrGrCrCrGrCrCrUrGrCrUrCrUrUrGrGrArGrAdTdT / antisense rUrCrUrCrCrArArGrArGrCrArGrGrCrGrGrCrCdCdG”, the normalised inhibition (eCFP-eYFP dual reporter) amounted to 69.4%.

In the case of “sense rGrGrCrArUrCrArArGrGrUrCrUrUrUrCrCrCrAdTdT / antisense rUrGrGrGrArArArGrArCrCrUrUrGrArUrGrCrCdAdT”, the normalised inhibition (eCFP-eYFP dual reporter) turned out to be 57.3%.

“sense rCrCrArCrCrCrArArGrGrGrCrUrArCrUrUrCrCdTdT / antisense rGrGrArArGrUrArGrCrCrCrUrUrGrGrGrUrGrGdGdG”: the normalised inhibition (eCFP-eYFP dual reporter) turned out to be 54.7%.

Consider “sense rGrCrUrGrGrGrGrArArGrGrArCrUrUrCrCrCrUdTdT / antisense rArGrGrGrArArGrUrCrCrUrUrCrCrCrCrArGrCdAdG”, for which the normalised inhibition (eCFP-eYFP dual reporter) is 53.9%.

Substance “sense rGrGrCrCrArArGrArArGrCrArUrGrCrUrGrGrCdTdT / antisense rGrCrCrArGrCrArUrGrCrUrUrCrUrUrGrGrCrCdAdT” returned a normalised inhibition (eCFP-eYFP dual reporter) of 57.2%.

With “sense rUrCrArCrCrArUrCrGrArGrGrGrCrCrCrUrGrAdTdT / antisense rUrCrArGrGrGrCrCrCrUrCrGrArUrGrGrUrGrAdCdC”, the normalised inhibition (eCFP-eYFP dual reporter) is 35.9%.

“sense rGrCrCrUrGrCrUrCrUrUrGrGrArGrArArCrUrAdTdT / antisense rUrArGrUrUrCrUrCrCrArArGrArGrCrArGrGrCdGdG” came in with a normalised inhibition (eCFP-eYFP dual reporter) of 76%.

In the case of “sense rGrArGrUrArUrGrCrArGrCrUrCrGrGrGrCrCrCdTdT / antisense rGrGrGrCrCrCrGrArGrCrUrGrCrArUrArCrUrCdCdT”, the normalised inhibition (eCFP-eYFP dual reporter) amounted to 53.4%.

For the substance “sense rCrCrUrGrCrUrCrUrUrGrGrArGrArArCrUrArCdTdT / antisense rGrUrArGrUrUrCrUrCrCrArArGrArGrCrArGrGdCdG”, the normalised inhibition (eCFP-eYFP dual reporter) came out at 70.7%.

Regarding “sense rArUrGrCrUrGrGrCrGrArGrCrGrCrGrArUrArAdTdT / antisense rUrUrArUrCrGrCrGrCrUrCrGrCrCrArGrCrArUdGdC”, the normalised inhibition (eCFP-eYFP dual reporter) stood at 71.3%.

In turn, “sense rArGrGrGrGrArCrCrCrCrArUrArUrGrCrUrGrGdTdT / antisense rCrCrArGrCrArUrArUrGrGrGrGrUrCrCrCrCrUdCdA” registered a normalised inhibition (eCFP-eYFP dual reporter) of 36.5%.

In turn, “sense rUrCrCrCrArArCrGrArGrGrArGrGrArCrCrUrCdTdT / antisense rGrArGrGrUrCrCrUrCrCrUrCrGrUrUrGrGrGrAdAdA” had a normalised inhibition (eCFP-eYFP dual reporter) of 35.7%.

Turning to “sense rArCrCrCrGrArUrGrGrCrArUrCrArArGrGrUrCdTdT / antisense rGrArCrCrUrUrGrArUrGrCrCrArUrCrGrGrGrUdGdG”, the normalised inhibition (eCFP-eYFP dual reporter) was 66.4%.

Turning to “sense rGrArGrGrGrCrCrCrUrGrArGrGrGrGrArCrCrCdTdT / antisense rGrGrGrUrCrCrCrCrUrCrArGrGrGrCrCrCrUrCdGdA”, the normalised inhibition (eCFP-eYFP dual reporter) was 44.6%.

Substance “sense rCrUrCrCrArCrCrGrArCrCrCrUrGrGrGrGrCrCdTdT / antisense rGrGrCrCrCrCrArGrGrGrUrCrGrGrUrGrGrArGdGdA” showed a normalised inhibition (eCFP-eYFP dual reporter) of 44%.

For “sense rCrGrGrUrCrGrGrGrCrCrCrUrGrGrCrCrArGrUdTdT / antisense rArCrUrGrGrCrCrArGrGrGrCrCrCrGrArCrCrGdGdC”, the normalised inhibition (eCFP-eYFP dual reporter) was 41.5%.

“sense rCrUrCrGrGrGrCrCrCrGrUrCrUrGrCrUrCrArCdTdT / antisense rGrUrGrArGrCrArGrArCrGrGrGrCrCrCrGrArGdCdT” displayed a normalised inhibition (eCFP-eYFP dual reporter) of 55%.

Regarding “sense rArCrCrCrCrArUrArUrGrCrUrGrGrArGrGrUrCdTdT / antisense rGrArCrCrUrCrCrArGrCrArUrArUrGrGrGrGrUdCdC”, the normalised inhibition (eCFP-eYFP dual reporter) was found to be 49.9%.

For “sense rArGrGrGrCrCrGrArArGrCrCrGrGrUrCrGrGrGdTdT / antisense rCrCrCrGrArCrCrGrGrCrUrUrCrGrGrCrCrCrUdGdC”, the normalised inhibition (eCFP-eYFP dual reporter) was 49.1%.

With “sense rGrGrCrUrArCrUrUrCrCrUrGrArCrCrArArGrAdTdT / antisense rUrCrUrUrGrGrUrCrArGrGrArArGrUrArGrCrCdCdT”, the normalised inhibition (eCFP-eYFP dual reporter) was found to be 91.7%.

“sense rCrUrGrCrUrCrArCrArGrArGrArUrCrCrArCrGdTdT / antisense rCrGrUrGrGrArUrCrUrCrUrGrUrGrArGrCrArGdAdC”: the normalised inhibition (eCFP-eYFP dual reporter) is 54.8%.
